Laboratory results reported in patent US20110319379A1, “Substituted Indazole Amides And Their Use As Glucokinase Activators” (priority 2009, published 2011).

target: T1, recombinant human glucokinase (beta cell isoform) (Homo sapiens, UniProt P35557); assay: Assay 1: Evaluating Activator Potency and Maximum Activation at 5 mM Glucose; assay type: biochemical; conditions: not given
T1 construct: Full-length glucokinase (beta cell isoform) was His-tagged at the N-terminus; His tag (N); made in house; host or cells: E. coli BL21(DE3), vector pBCGK
T1 sequence (P35557 1-465): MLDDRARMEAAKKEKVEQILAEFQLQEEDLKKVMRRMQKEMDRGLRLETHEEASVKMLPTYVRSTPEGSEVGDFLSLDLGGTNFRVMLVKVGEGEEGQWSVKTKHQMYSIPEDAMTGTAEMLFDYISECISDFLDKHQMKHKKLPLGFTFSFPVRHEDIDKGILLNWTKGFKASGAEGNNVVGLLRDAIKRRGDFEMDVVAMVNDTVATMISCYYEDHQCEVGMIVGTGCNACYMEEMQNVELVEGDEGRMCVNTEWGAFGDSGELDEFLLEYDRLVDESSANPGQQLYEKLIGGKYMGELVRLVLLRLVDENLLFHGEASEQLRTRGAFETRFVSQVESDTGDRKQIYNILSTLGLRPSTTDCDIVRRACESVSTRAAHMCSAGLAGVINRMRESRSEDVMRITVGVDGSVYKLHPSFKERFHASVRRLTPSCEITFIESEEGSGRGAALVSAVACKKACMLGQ
Protocol: Representative compounds of this invention were evaluated in biochemical assays (Assay 1 or Assay 2) to characterize their glucokinase activation properties.
The recombinant human glucokinase protein utilized in both assays was prepared and purified as described below.
BL21(DE3) cells (Invitrogen Corporation, Carlsbad, Calif.) containing pBCGK (C or N H is) vector were grown at 37° C. (in 2XYT) until the OD600 was between 0.6-1.0. Expression was induced by addition of isopropylthiogalactoside to a final concentration of 0.1-0.2 mM to the cells which were then incubated overnight at 23° C. The next day, cells were harvested via centrifugation at 5000 rpm for 15 minutes at 4° C. The cell pellet was stored at −80° C. for future purification.
Beta Cell Glucokinase His-Taq Purification Conditions: A Ni-NTA (Quigan, Germantown, Md.) column (15-50 mL) was used for separation. Two buffers were prepared, 1) a lysis/nickel equilibration and wash buffer and 2) a nickel elution buffer. The lysis/equilibration/wash buffer was prepared as such: 25 mM HEPES buffer at pH 7.5, 250 mM NaCl, 20 mM imidazole, and 14 mM β-mercaptoethanol as final concentrations. The elution buffer was prepared as such: 25 mM HEPES at pH 7.5, 250 mM NaCl, 400 mM imidazole, and 14 mM β-mercaptoethanol as final concentrations. The buffers were each filtered with a 0.22 μm filter prior to use. The cell pellet (1 L culture) was resuspended in 300 mL of the lysis/equilibration buffer. The cells were then lysed (3 times) with a Microfluidics Model 110Y microfluidizer (Microfluidics Corporation, Newton, Mass.). The slurry was centrifuged with a Beckman Coulter Model LE-80K ultracentrifuge (Beckman Coulter, Fullerton, Calif.) at 40,000 rpm for 45 minutes at 4° C. The supernatant was transferred to a chilled flask. A volume of 20 μl was saved for gel analysis. A Pharmacia AKTA (GMI, Inc., Ramsey, Minn.) purification system was used for separation. The prime lines were purged with lysis/equilibration buffer. The Ni-NTA column was equilibrated with 200 mL of the lysis/equilibration buffer at a flow rate of 5 mL/minute. The supernantant was loaded over the column at 4 mL/minute and the flow-through was collected in a flask. The unbound proteins were washed with lysis/equilibration buffer at a flow rate of 5 mL/minute until the ultraviolet reaches baseline. The protein was then eluted from the column with the imidazole elution buffer via imidazole gradient 20 mM to 400 mM over 320 mL. The column was then stripped of any additional protein with 80 mL of the elution buffer. The elution fractions were each 8 mL, for a total yield of 50 samples. Fractions were analyzed by sodium dodecyl sulfate polyacrylamide (SDS-PAGE) and the fractions containing protein of interest were pooled and concentrated to 10 mL using ultrafiltration cell with a 10,000 molecular weight cut-off (MWCO) Millipore membrane (Sigma-Aldrich, St. Louis, Mo.) under nitrogen gas (60 psi). Protein was further purified by size exclusion chromatography (SEC) using a […] (320 mL) (Amersham Pharmacia, Uppsala, Sweden). SEC was equilibrated with 450 mL sizing buffer containing 25 mM HEPES pH 7.0, 50 mM NaCl, and 5 mM dithiothreitol. Concentrated protein was then loaded over SEC and elution with 400 mL sizing buffer was performed overnight at 0.5 mL/minute. The elution fractions were 5 mL each. The fractions were analyzed by SDS-PAGE and protein containing fractions were pooled. Concentration was measured using Bradford Assay/BSA Standard. Purified protein was stored in small aliquots at −80° C.
Assay 1: Evaluating Activator Potency and Maximum Activation at 5 mM Glucose
Full-length glucokinase (beta cell isoform) was His-tagged at the N-terminus and purified by a Ni column followed by size exclusion chromatography as described above. Glucose was obtained from Calbiochem (San Diego, Calif.) and other reagents were purchased from Sigma-Aldrich (St. Louis, Mo.).

SMILES | EC50 [nM]
Cc1cnc(NC(=O)c2cc(Oc3cnc(C(=O)N(C)C)c(F)c3)c3cn(C)nc3c2)cn1 [Example 1AC, 4-{[6-(dimethylcarbamoyl)-5-fluoropyridin-3-yl]oxy}-2-methyl-N-(5-methylpyrazin-2-yl)-2H-indazole-6-carboxamide] | 1630

same assay, conditions: Assay 1; 5 mM glucose; NADH depletion at 340 nm, PK/LDH coupled; read-out: Glucokinase EC50

SMILES | EC50 [nM]
Cc1ccc(NC(=O)c2cc(Oc3cnc(C(=O)N4CCCC4)cn3)c3cn(C)nc3c2)nc1 [Example 1A, 2-methyl-N-(5-methylpyridin-2-yl)-4-(5-(pyrrolidine-1-carbonyl)pyrazin-2-yloxy)-2H-indazole-6-carboxamide] | 293
Cn1cc2c(Oc3cnc(C(F)(F)F)cn3)cc(C(=O)Nc3cnn(C)n3)cc2n1 [Example 1K, 2-methyl-N-(2-methyl-2H-1,2,3-triazol-4-yl)-4-{[5-(trifluoromethyl)pyrazin-2-yl]oxy}-2H-indazole-6-carboxamide] | 16100
COc1cnc(NC(=O)c2cc(Oc3cnc(C(=O)N(C)C)cn3)c3cn(C)nc3c2)cn1 [Example 1H, 4-{[5-(dimethylcarbamoyl)pyrazin-2-yl]oxy}-N-(5-methoxypyrazin-2-yl)-2-methyl-2H-indazole-6-carboxamide] | 2770
CCS(=O)(=O)c1ccc(Oc2cc(C(=O)Nc3cnc(C)cn3)cc3nn(C)cc23)cc1 [Example 1T, 4-[4-(ethylsulfonyl)phenoxy]-2-methyl-N-(5-methylpyrazin-2-yl)-2H-indazole-6-carboxamide] | 1950
CCn1cc2c(Oc3ccc(S(=O)(=O)CC)cc3)cc(C(=O)Nc3ccc(C)cn3)cc2n1 [Example 1AD, 2-ethyl-4-[4-(ethylsulfonyl)phenoxy]-N-(5-methylpyridin-2-yl)-2H-indazole-6-carboxamide] | 463
Cn1ccc(NC(=O)c2cc(Oc3ccc(S(C)(=O)=O)cc3)c3cn(C)nc3c2)n1 [Example 1N, 2-methyl-N-(1-methyl-1H-pyrazol-3-yl)-4-[4-(methylsulfonyl)phenoxy]-2H-indazole-6-carboxamide] | 8540
Cc1ccc(NC(=O)c2cc(Oc3cnc(C(=O)N(C)C)cn3)c3cn(C)nc3c2)nc1 [Example 1G, 4-{[5-(dimethylcarbamoyl)pyrazin-2-yl]oxy}-2-methyl-N-(5-methylpyridin-2-yl)-2H-indazole-6-carboxamide] | 1550
CCn1cc2c(Oc3ccc(S(C)(=O)=O)cc3)cc(C(=O)Nc3ccc(C)cn3)cc2n1 [Example 1R, 2-ethyl-N-(5-methylpyridin-2-yl)-4-[4-(methylsulfonyl)phenoxy]-2H-indazole-6-carboxamide] | 1410
Cc1cnc(NC(=O)c2cc(Oc3ccc(S(C)(=O)=O)cc3)c3cn(C)nc3c2)cn1 [Example 1L, 2-methyl-N-(5-methylpyrazin-2-yl)-4-[4-(methylsulfonyl)phenoxy]-2H-indazole-6-carboxamide] | 7810
Cc1ccc(NC(=O)c2cc(Oc3ccc(C(=O)N4CCCC4)c(F)c3)c3cn(C)nc3c2)nc1 [Example 1C, 4-[3-fluoro-4-(pyrrolidin-1-ylcarbonyl)-phenoxy]-2-methyl-N-(5-methylpyridin-2-yl)-2H-indazole-6-carboxamide] | 1490
Cn1cc2c(Oc3ccc(S(=O)(=O)C4CC4)cc3)cc(C(=O)Nc3ccccn3)cc2n1 [Example 1V, 4-[4-(cyclopropylsulfonyl)phenoxy]-2-methyl-N-pyridin-2-yl-2H-indazole-6-carboxamide] | 1500
CCn1cc2c(Oc3cnc(C(=O)N(C)C)c(F)c3)cc(C(=O)Nc3cnc(C)cn3)cc2n1 [Example 1AE, 4-(6-(dimethylcarbamoyl)-5-fluoropyridin-3-yloxy)-2-ethyl-N-(5-methylpyrazin-2-yl)-2H-indazole-6-carboxamide] | 569
CCn1cc2c(Oc3ccc(S(C)(=O)=O)cc3)cc(C(=O)Nc3ccccn3)cc2n1 [Example 1Q, 2-ethyl-4-[4-(methylsulfonyl)phenoxy]-N-pyridin-2-yl-2H-indazole-6-carboxamide] | 2420
CCS(=O)(=O)c1ccc(Oc2cc(C(=O)Nc3ccccn3)cc3nn(C)cc23)cc1 [Example 1S, 4-[4-(ethylsulfonyl)phenoxy]-2-methyl-N-pyridin-2-yl-2H-indazole-6-carboxamide] | 1340
Cc1cnc(NC(=O)c2cc(Oc3cnc(C(=O)N(C)C)cn3)c3cn(C)nc3c2)cn1 [Example 1F, 4-{[5-(dimethylcarbamoyl)pyrazin-2-yl]oxy}-2-methyl-N-(5-methylpyrazin-2-yl)-2H-indazole-6-carboxamide] | 2490
Cn1cc2c(Oc3ccc(C(=O)N4CCCC4)c(F)c3)cc(C(=O)Nc3cnccn3)cc2n1 [Example 1D, 4-[3-fluoro-4-(pyrrolidin-1-ylcarbonyl)-phenoxy]-2-methyl-N-pyrazin-2-yl-2H-indazole-6-carboxamide] | 735
CCn1cc2c(Oc3ccc(S(=O)(=O)C4CC4)cc3)cc(C(=O)Nc3ccccn3)cc2n1 [Example 1X, 4-[4-(cyclopropylsulfonyl)phenoxy]-2-ethyl-N-pyridin-2-yl-2H-indazole-6-carboxamide] | 863
Cc1ccc(NC(=O)c2cc(Oc3ccc(S(C)(=O)=O)cc3)c3cn(C)nc3c2)nc1 [Example 1M, 2-methyl-N-(5-methylpyridin-2-yl)-4-[4-(methylsulfonyl)phenoxy]-2H-indazole-6-carboxamide] | 2660
CN(C)C(=O)c1ncc(Oc2cc(C(=O)Nc3ccc(C(F)(F)F)cn3)cc3nn(C)cc23)cn1 [Example 1AB, 4-(2-(dimethylcarbamoyl)pyrimidin-5-yloxy)-2-methyl-N-(5-(trifluoromethyl)-pyridin-2-yl)-2H-indazole-6-carboxamide] | 1040
CCn1cc2c(Oc3ccc(S(=O)(=O)C4CC4)cc3)cc(C(=O)Nc3cnc(C)cn3)cc2n1 [Example 1W, 4-[4-(cyclopropylsulfonyl)phenoxy]-2-ethyl-N-(5-methylpyrazin-2-yl)-2H-indazole-6-carboxamide] | 1480
CCn1cc2c(Oc3cnc(C(=O)N(C)C)cn3)cc(C(=O)Nc3cnc(C)cn3)cc2n1 [Example 1P, 4-{[5-(dimethylcarbamoyl)pyrazin-2-yl]oxy}-2-ethyl-N-(5-methylpyrazin-2-yl)-2H-indazole-6-carboxamide] | 2730
CN(C)C(=O)c1ncc(Oc2cc(C(=O)Nc3ccc(Cl)cn3)cc3nn(C)cc23)cn1 [Example 1AA, N-(5-chloropyridin-2-yl)-4-(2-(dimethylcarbamoyl)pyrimidin-5-yloxy)-2-methyl-2H-indazole-6-carboxamide] | 863

same assay, conditions: Assay 1; 5 mM glucose; read-out: Glucokinase EC50

SMILES | EC50 [nM]
Cc1cnc(NC(=O)c2cc(Oc3cnc(C(=O)N(C)C)nc3)c3cn(C)nc3c2)cn1 [Example 1Y, 4-{[2-(dimethylcarbamoyl)pyrimidin-5-yl]oxy}-2-methyl-N-(5-methylpyrazin-2-yl)-2H-indazole-6-carboxamide] | 3340
